These results are taken from patent publication US20120202690A1, “HERBICIDAL COMPOUNDS” (SYNGENTA LIMITED, priority 2009, published 2012).

What all share (assay type): in vivo
For test [1], the system named is Solanum nigrum (SOLNI). In words: Pre-emergence biological efficacy, glasshouse, 1000 g/ha, evaluated after 13 days (100=total damage to plant; 0=no damage to plant). As to conditions: Solanum nigrum, 312 h, rate 1,000 g/ha, read-out: Percentage damage caused to weed species, pre-emergence, SOLNI. As to the method:
(§1) Seeds of Alopecurus myosuroides (ALOMY), Setaria faberi (SETFA), Echinochloa crus-galli (ECHCG), Solanum nigrum (SOLNI), Amaranthus retroflexus (AMARE) and Ipomoea hederaceae (IPOHE) were sown in standard soil in pots. […] The test plants were then grown under controlled conditions in the glasshouse (at 24/16° C., day/night; 14 hours light; 65% humidity) and watered twice daily. […]

The test system of test [2] is Echinochloa crus-galli (ECHCG). Described as above. As to conditions: Echinochloa crus-galli, 312 h, rate 1,000 g/ha, read-out: Percentage damage caused to weed species, pre-emergence, ECHCG. As to the method: as §1
The test system of test [3] is Alopecurus myosuroides (ALOMY). The description is as above. The following applies: Alopecurus myosuroides, 312 h, rate 1,000 g/ha, read-out: Percentage damage caused to weed species, pre-emergence, ALOMY. On the procedure:
as §1

Test [4] has as its system Setaria faberi (SETFA). Described as above. The following applies: Setaria faberi, 312 h, rate 1,000 g/ha, read-out: Percentage damage caused to weed species, pre-emergence, SETFA. As to the method: as §1
The subject of test [5] is Amaranthus retroflexus (AMARE). Described as above. The following applies: Amaranthus retroflexus, 312 h, rate 1,000 g/ha, read-out: Percentage damage caused to weed species, pre-emergence, AMARE. On the procedure: as §1
Test [6] has as its system Ipomoea hederaceae (IPOHE). The description is as above. The following applies: Ipomoea, 312 h, rate 1,000 g/ha, read-out: Percentage damage caused to weed species, pre-emergence, IPOHE. On the procedure:
as §1

The subject of test [7] is Solanum nigrum (SOLNI). In words: Post-emergence biological efficacy, glasshouse, 500 or 1000 g/ha, evaluated after 13 days (100=total damage to plant; 0=no damage to plant). The following applies: Solanum nigrum, 312 h, rate 1,000 g/ha, read-out: Percentage damage caused to weed species, post-emergence, SOLNI. As to the method:
(§2) Seeds of Alopecurus myosuroides (ALOMY), Setaria faberi (SETFA), Echinochloa […]), Solanum nigrum (SOLNI), Amaranthus retroflexus (AMARE) and Ipomoea hederaceae (IPOHE) were sown in standard soil in pots. […] The test plants were then grown on under controlled conditions in a glasshouse (at 24/16° C., day/night; 14 hours light; 65% humidity) and watered twice daily. […]

Test [8] has as its system Alopecurus myosuroides (ALOMY). Described as above. As to conditions: Alopecurus myosuroides, 312 h, rate 1,000 g/ha, read-out: Percentage damage caused to weed species, post-emergence, ALOMY. On the procedure: as §2
Test [9] concerns Setaria faberi (SETFA). The test is described as above. As to conditions: Setaria faberi, 312 h, rate 1,000 g/ha, read-out: Percentage damage caused to weed species, post-emergence, SETFA. As to the method:
as §2

Test [10] relates to Echinochloa crusgaffi (ECHCG). The description is as above. As to conditions: Echinochloa, 312 h, rate 1,000 g/ha, read-out: Percentage damage caused to weed species, post-emergence, ECHCG. As to the method:
as §2

Test [11] deals with Amaranthus retroflexus (AMARE). The test is described as above. As to conditions: Amaranthus retroflexus, 312 h, rate 1,000 g/ha, read-out: Percentage damage caused to weed species, post-emergence, AMARE. On the procedure:
as §2

The test system of test [12] is Ipomoea hederaceae (IPOHE). The test is described as above. As to conditions: Ipomoea, 312 h, rate 1,000 g/ha, read-out: Percentage damage caused to weed species, post-emergence, IPOHE. On the procedure:
as §2

For `COc1c(Cl)ccc(-c2nc(C(=O)O)c3c(C)cn(Cc4ccccc4[N+](=O)[O-])c3n2)c1F` [Compound 8-63, 4-Carboxy-2-(4-chloro-2-fluoro-3-methoxyphenyl)-5-methyl-7-(2-nitrophenyl-methyl)-7H-pyrrolo[2 ,3-d]pyrimidine], the pest or weed control at 1000 g/ha in the test with Solanum nigrum (SOLNI) [1] came to 40%; in [2], 0%; in test [3] it was 0%; with Setaria faberi (SETFA) [4] it was 0%; in test [5], 10%; in test [6], 30%. The pest or weed control at 1000 g/ha worked out at 80% in the test with Solanum nigrum (SOLNI) [7]; 10% in test [8]; 20% in the test with Setaria faberi (SETFA) [9]; 50% in test [10]; 70% in test [11]; 60% in [12].
For the compound `CCCCOCC(C)OC(=O)c1nc(-c2ccc(Cl)c(OC)c2F)cc2[nH]cc(C)c12` (stereo not shown) [Compound 22-84, 4-[(1-n-Butoxy)-prop-2-yloxycarbonyl]-6-(4-chloro-2-fluoro-3-methoxyphenyl)-3-methyl-1H-pyrrolo[3,2-c]pyridine], the pest or weed control at 1000 g/ha was 70% in the test on Solanum nigrum (SOLNI) [1]; 20% in test [2]; 20% in [3]; 10% with Setaria faberi (SETFA) [4]; 40% in [5]; 80% in test [6]. The pest or weed control at 1000 g/ha was determined as 90% in the test with Solanum nigrum (SOLNI) [7]; 20% in [8]; 30% in the test on Setaria faberi (SETFA) [9]; 20% in [10]; 80% in [11]; 40% in test [12].
For `COC(=O)c1nc(-c2ccc(Cl)c(OC)c2F)nc2c1Nc1ccccc1N2` [Compound 119-168, 2-(4-chloro-2-fluoro-3-methoxyphenyl)-4-methoxycarbonyl-5,10-dihydro-benzo[g]pteridine], the pest or weed control at 1000 g/ha (with Solanum nigrum (SOLNI) [1]; in test [2]; in [3]; with Setaria faberi (SETFA) [4]; in [5]; in [6]) was 0% each time. Further, the pest or weed control at 1000 g/ha with Solanum nigrum (SOLNI) [7] was 30%; in [8] it was 0%; in the test with Setaria faberi (SETFA) [9], 0%; in test [10] it was 0%; in test [11] it was 10%; in test [12] it was 40%.
Regarding `COC(=O)c1nc(-c2ccc(Cl)c(OC)c2F)nc2c1cc(C)n2Cc1ccccc1` [Compound 6-66, 2-(4-Chloro-2-fluoro-3-methoxyphenyl)-4-methoxycarbonyl-6-methyl-7-phenylmethyl-7H-pyrrolo[2,3-d]pyrimidine], the pest or weed control at 1000 g/ha in the test on Solanum nigrum (SOLNI) [1] was 20%; in test [2] it was 0%; in [3], 0%; with Setaria faberi (SETFA) [4] it was 0%; in test [5] it was 10%; in test [6] it was 0%. Also, the pest or weed control at 1000 g/ha in the test with Solanum nigrum (SOLNI) [7] is 80%; in test [8], 0%; in the test with Setaria faberi (SETFA) [9] it was 10%; in test [10], 0%; in [11], 40%; in test [12] it was 40%.
`COC(=O)c1nc(-c2ccc(Cl)c(OC)c2F)nc2c1c(C)cn2C(=O)C(C)(C)C` [Compound 16-64, 7-t-Butylcarbonyl-2-(4-chloro-2-fluoro-3-methoxyphenyl)-4-methoxycarbonyl-5-methyl-7H-pyrrolo[2,3-d]pyrimidine]: the pest or weed control at 1000 g/ha (in the test on Solanum nigrum (SOLNI) [1]; in test [2]; in test [3]; in the test with Setaria faberi (SETFA) [4]; in [5]; in test [6]) was 0% each time. The pest or weed control at 1000 g/ha in the test with Solanum nigrum (SOLNI) [7] came out at 60%; in [8], 0%; in the test with Setaria faberi (SETFA) [9], 0%; in test [10], 0%; in [11] it was 10%; in [12], 70%.
Regarding `COc1c(Cl)ccc(-c2nc(C(=O)O)c3cc[nH]c3n2)c1F` [Compound 1-61, 4-Carboxy-2-(4-chloro-2-fluoro-3-methoxyphenyl)-7H-pyrrolo[2,3-d]pyrimidine], the pest or weed control at 1000 g/ha was 0% in [2]; 0% in test [3]; 0% in the test on Setaria faberi (SETFA) [4]; 0% in test [6]; 70% in the test on Solanum nigrum (SOLNI) [7]; 10% in [8]. The pest or weed control at 1000 g/ha with Setaria faberi (SETFA) [9] is 40%; in [10], 20%; in test [11], 100%; in test [12], 70%.
In the case of `COc1c(Cl)ccc(-c2nc(C(=O)OCc3ccccc3)c3c(C)c[nH]c3n2)c1F` [Compound 1-86, 4-Benzyloxycarbonyl-2-(4-chloro-2-fluoro-3-methoxyphenyl)-5-methyl-7H-pyrrolo[2,3-d]pyrimidine], the pest or weed control at 1000 g/ha with Solanum nigrum (SOLNI) [1] was 10%; in [2], 0%; in test [3], 0%; with Setaria faberi (SETFA) [4], 0%; in [6] it was 0%; in the test on Solanum nigrum (SOLNI) [7], 60%. For the same compound, the pest or weed control at 1000 g/ha came out at 0% in [8]; 10% with Setaria faberi (SETFA) [9]; 0% in test [10]; 40% in test [11]; 30% in [12].
As to `Cc1cc2c(C(=O)O)nc(-c3ccc(Cl)c(F)c3)nc2n1Cc1ccccc1[N+](=O)[O-]` [Compound 8-21, 4-Carboxy-2-(4-chloro-3-fluorophenyl)-6-methyl-7-(2-nitrophenyl-methyl)-7H-pyrrolo[2,3-d]pyrimidine], the pest or weed control at 1000 g/ha was determined as 0% with Solanum nigrum (SOLNI) [1]; 0% in test [2]; 0% in test [3]; 20% in the test with Setaria faberi (SETFA) [4]; 0% in test [6]; 20% with Solanum nigrum (SOLNI) [7]. The pest or weed control at 1000 g/ha in test [8] turned out to be 10%; with Setaria faberi (SETFA) [9] it was 0%; in test [10] it was 0%; in test [11] it was 0%; in [12] it was 10%.
As to `COC(=O)c1nc(-c2ccc(Cl)c(OC)c2F)cc2c1c(C)cn2C(C)=O` [Compound 36-64, 6-(4-Chloro-2-fluoro-3-methoxyphenyl)-4-methoxycarbonyl-3-methyl-1-methylcarbonyl-1H-pyrrolo[3,2-c]pyridine], the pest or weed control at 1000 g/ha with Solanum nigrum (SOLNI) [1] stood at 50%; in test [2] it was 0%; in test [3], 0%; in the test on Setaria faberi (SETFA) [4] it was 0%; in test [6], 20%; in the test with Solanum nigrum (SOLNI) [7] it was 80%. The pest or weed control at 1000 g/ha in test [8] came to 0%; with Setaria faberi (SETFA) [9], 10%; in test [10], 0%; in test [11], 70%; in test [12], 70%.
